Read-outs that look alike come from different tables or passages of the source.
What was measured:
[1] = test system: bacteria; details: quat 0.5% (5 g/L), cited from earlier work
[2] = test system: virus; details: quat 0.5% (5 g/L), cited from earlier work
[3] = test system: C. perfringes; details: Ammonia at 0.1% w/w
[4] = recommended storage conditions; cited from earlier work
[5] = test system: parasites and protozoan oocysts; details: 20,000 mg/L ammonium phosphate, NH3 30 mg/L at pH 7.4, 300 mg/L at pH 8.4, cited from earlier work

## C12-C14-alkyl (ethylbenzyl) dimethyl ammonium chloride [Quaternary Amines]
[1]
  Degree of Inactivation: log reduction of bacteria: 9 log reduction of bacteria
[1]; listed as Quats
  Degree of Inactivation: log reduction of bacteria: 9 log reduction of
[2]
  Degree of Inactivation: log reduction of virus: 6 log reduction, of virus
[2]; listed as Quats
  Degree of Inactivation: log reduction of virus: 6 log reduction. of

## N [Ammonia]
[3]; raw biosolids at 1×10^7
  level of C. perfringes after treatment: less than 2×10^2
[3]; raw biosolids
  log reduction of spore forming bacteria and parasites: five log reductions

## N.N.O=P(O)(O)O [Ammonium Phosphate/Nonionized Ammonia, Ammonium Phosphate Dibasic]
[4]
  Storage stability: Stable under recommended storage
[5]
  Degree of Inactivation: log reduction of parasites and protozoan oocysts: 6 log reduction of parasites and
[5]; listed as Ammonium Phosphate
  Degree of Inactivation: log reduction of parasites and protozoan oocysts: 6 log reduction of

— patent US20220394979A1 (priority 2021, published 2022)
